Measured values: patent US20080319191A1, “Crystalline form IV of linezolid” (Teva Pharmaceutical Industries Ltd., priority 2005, published 2008)

Assays:
Type in all cases: physicochemical
[1] = Stability of linezolid Form IV stored 10 days at 0-100% relative humidity at room temperature
Procedure: The stability of linezolid Form IV was tested by storing it for 10 days at a relative humidity of between 0 and 100% at room temperature.

[2] = Long term stability of linezolid Form IV at room temperature and accelerated conditions (40° C. and 55° C.)
Procedure: The long term stability of linezolid Form IV was tested by storing it at room temperature and under accelerated conditions at 40° C. and 55° C.

[3] = Chemical stability of Form IV obtained by heating Form II at 170° C.; conditions: Form IV obtained at 170° C. (one hour)
Procedure: Crystalline linezolid Form IV may be prepared by heating crystalline linezolid Form II to a temperature higher than 85° C. Crystalline linezolid Form IV is obtained by keeping crystalline linezolid Form II at a temperature of between 85-175° C. As an example, crystalline linezolid Form II was kept at a temperature of 170° C. during one hour. The polymorphic form of crystalline linezolid Form II was changed to crystalline linezolid Form IV.

CC(=O)NC[C@H]1CN(c2ccc(N3CCOCC3)c(F)c2)C(=O)O1 [linezolid Form IV]
chemically stable: Chemical stability [3]
stable: Stability ([1]; between 0-100% RH)
≥ 3 months: Time stable on storage ([2]; 25° C., 40° C., and 55° C.)
non-hygroscopic: Hygroscopicity ([1]; between 0-100% RH)
0.1%: Solvent content ([1]; As is (before storage)) | Solvent content ([1]; relative humidity 0%, 10 days, room temperature) | Solvent content ([1]; relative humidity 20%, 10 days, room temperature) | Solvent content ([1]; relative humidity 40%, 10 days, room temperature) | Solvent content ([1]; relative humidity 60%, 10 days, room temperature) | Solvent content ([1]; relative humidity 80%, 10 days, room temperature) | Solvent content ([1]; relative humidity 100%, 10 days, room temperature)
Form IV: Crystal form after storage (Results) ([2]; 25° C., 1 M) | Crystal form after storage (Results) ([2]; 25° C., 2 M) | Crystal form after storage (Results) ([2]; 25° C., 3 M) | Crystal form after storage (Results) ([2]; 25° C., As is) | Crystal form after storage (Results) ([2]; 40° C., 1 M) | Crystal form after storage (Results) ([2]; 40° C., 2 M) | Crystal form after storage (Results) ([2]; 40° C., 3 M) | Crystal form after storage (Results) ([2]; 55° C., 1 M) | Crystal form after storage (Results) ([2]; 55° C., 2 M) | Crystal form after storage (Results) ([2]; 55° C., 3 M)
at least 10 days: Time stable against transformation into Form II upon storage ([1]; relative humidity of about 0% to about 100%, room temperature)
